In test [1] the test system is MIA PaCa-2 (human pancreatic carcinoma) cells. Description: Cell Viability Assay (CellTiter-Glo), MIA PaCa-2. Format: cell-based. To be noted: Homo sapiens, MIA PaCa-2, 72 h. How it is done: Serially-diluted compound or DMSO was added to the cells, and plates were incubated at 37° C., 5% CO2 for 72 h. Cell viability was measured using a CellTiter-Glo® Luminescent Cell Viability Assay kit (Promega) according to the manufacturer's protocol. The luminescence signal of treated samples was normalized to DMSO control, and data were analyzed using a 4-parameter logistic model to calculate IC50 values.
A general note: Cellular ATP, detected with luciferase, serves as a proxy for viable cell number.

The subject of test [2] is A549 (human lung carcinoma) cells. The experiment in a line: Cell Viability Assay (CellTiter-Glo), A549. To be noted: Homo sapiens, A549, 72 h. Format: cell-based. The essentials: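 Cells grown in RPMI 1640 with 10% FBS were seeded at 1.67E+04 cells/mL and left overnight at 37° C., 5% CO2. They were then exposed to serially diluted compound for 72 h, after which CellTiter-Glo luminescence was read, normalized to DMSO, and fitted to a 4-parameter logistic model for IC50.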

Another test addresses KRAS G12C (Homo sapiens (Human), UniProt P01116, C118A/G12C). Description: 2 h coupled exchange assay. Format: biochemical. To be noted: Avg 2 h Coupled exchange IC50, 2 h compound pre-incubation. As to the method: The term “2 h coupled exchange assay” or “20 h coupled exchange assay” as used herein refers to the assay described in the Section entitled “BIOLOGICAL EVALUATION.”

These results are taken from patent publication US20240059703A1 (AMGEN INC., priority 2021, published 2024).

KRAS G12C, sequence (P01116 other isoform, or with tags, fused parts or gaps G12C/C118A): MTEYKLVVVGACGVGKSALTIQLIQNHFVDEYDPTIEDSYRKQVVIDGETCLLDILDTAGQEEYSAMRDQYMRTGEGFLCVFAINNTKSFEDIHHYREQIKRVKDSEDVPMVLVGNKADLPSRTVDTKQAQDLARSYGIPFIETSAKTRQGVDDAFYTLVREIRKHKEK

The IC50 is the midpoint of a concentration-inhibition curve. The low end stands for greater potency, the high end for weaker potency. In the case of `C=CC(=O)N1CC2(CCN(c3nc4cc(-c5scnc5C)cnc4c(-c4ccccc4F)c3C#N)C2)C1` [Example 20-15, 4-(2-fluorophenyl)-7-(4-methyl-1,3-thiazol-5-yl)-2-(2-(2-propenoyl)-2,6-diazaspiro[3.4]octan-6-yl)-1,5-naphthyridine-3-carbonitrile], the figures for the IC50 (in test [1]; in test [2]; on KRAS G12C) were 649 nM, more than 5000 nM and 116 nM, respectively.
The like results for `C=CC(=O)N1CC2(CCN(c3nc4cc(-c5scnc5COC)ccc4c(-c4ccccc4F)c3C#N)C2)C1` [Example 20-16, 4-(2-fluorophenyl)-7-(4-(methoxymethyl)-1,3-thiazol-5-yl)-2-(2-(2-propenoyl)-2,6-diazaspiro[3.4]octan-6-yl)-3-quinolinecarbonitrile] were, in that order, 817 nM, 9150 nM and 124 nM.
Turning to `C=CC(=O)N1CC2(CCN(c3nc4cc(-c5scnc5C)ccc4c(-c4ccccc4OC)c3C#N)C2)C1` [Example 20-17, 4-(2-methoxyphenyl)-7-(4-methyl-1,3-thiazol-5-yl)-2-(2-(2-propenoyl)-2,6-diazaspiro[3.4]octan-6-yl)-3-quinolinecarbonitrile], the results for the IC50 (in test [1]; in test [2]; against KRAS G12C) were 1820 nM, 7580 nM and 431 nM, respectively.
`C=CC(=O)N1CC2(CCN(c3nc4cc(-c5scnc5CO)ccc4c(-c4ccccc4F)c3C#N)C2)C1` [Example 20-18, 4-(2-fluorophenyl)-7-(4-(hydroxymethyl)-1,3-thiazol-5-yl)-2-(2-(2-propenoyl)-2,6-diazaspiro[3.4]octan-6-yl)-3-quinolinecarbonitrile]: the IC50 in test [1] was 651 nM; in test [2], more than 5000 nM; against KRAS G12C it was 95 nM.
The like results for `C=CC(=O)N1CC2(CCN(c3nc4cc(-c5cncs5)ccc4c(-c4ccccc4F)c3C#N)C2)C1` [Example 20-19, 4-(2-fluorophenyl)-2-(2-(2-propenoyl)-2,6-diazaspiro[3.4]octan-6-yl)-7-(1,3-thiazol-5-yl)-3-quinolinecarbonitrile] were, in that order, 2070 nM, 4770 nM and 325 nM.
As for `C=CC(=O)N1CC2(CCN(c3nc4cc(-c5scnc5C)ccc4c(-c4ccccc4O)c3C#N)C2)C1` [Example 20-20, 4-(2-hydroxyphenyl)-7-(4-methyl-1,3-thiazol-5-yl)-2-(2-(2-propenoyl)-2,6-diazaspiro[3.4]octan-6-yl)-3-quinolinecarbonitrile], the IC50 worked out at 1750 nM in test [1], 6850 nM in test [2] and 162 nM against KRAS G12C.
The matching figures for `C=CC(=O)N1CC2(CCN(c3nc4cc(-c5scnc5C)cnc4c(-c4cccc(O)c4)c3C#N)C2)C1` [Example 20-21, 4-(3-hydroxyphenyl)-7-(4-methyl-1,3-thiazol-5-yl)-2-(2-(2-propenoyl)-2,6-diazaspiro[3.4]octan-6-yl)-1,5-naphthyridine-3-carbonitrile]: 4970 nM, 10800 nM and 958 nM.
The matching figures for `C=CC(=O)N1CC2(CCN(c3nc4cc(-c5scnc5C)cnc4c(-c4ccc(F)c(O)c4)c3C#N)C2)C1` [Example 20-22, 4-(4-fluoro-3-hydroxyphenyl)-7-(4-methyl-1,3-thiazol-5-yl)-2-(2-(2-propenoyl)-2,6-diazaspiro[3.4]octan-6-yl)-1,5-naphthyridine-3-carbonitrile]: 7480 nM, 12100 nM and 371 nM.
Take `C=CC(=O)N1CC2(CCN(c3nc4c(c(-c5ccccc5F)c3C#N)CCN(c3scnc3C)C4)C2)C1` [Example 21-1, 4-(2-fluorophenyl)-7-(4-methyl-1,3-thiazol-5-yl)-2-(2-(2-propenoyl)-2,6-diazaspiro[3.4]octan-6-yl)-5,6,7,8-tetrahydro-1,7-naphthyridine-3-carbonitrile]: the IC50 in test [1] was 327 nM; in test [2], more than 5000 nM; against KRAS G12C, 41 nM.
On to `C=CC(=O)N1CC2(CCN(c3nc4c(c(-c5ccccc5F)c3C#N)CCN(c3ccnn3C)C4)C2)C1` [Example 21-2, 4-(2-fluorophenyl)-7-(1-methyl-1H-pyrazol-5-yl)-2-(2-(2-propenoyl)-2,6-diazaspiro[3.4]octan-6-yl)-5,6,7,8-tetrahydro-1,7-naphthyridine-3-carbonitrile], for which the IC50 in test [1] was 805 nM; in test [2], more than 5000 nM; against KRAS G12C, 189 nM.
The like results for `C=CC(=O)N1CC2(CCN(c3nc4c(c(-c5ccc(F)cc5F)c3C#N)CCN(c3scnc3C)C4)C2)C1` [Example 21-3, 4-(2,4-difluorophenyl)-7-(4-methyl-1,3-thiazol-5-yl)~2-(2-(2-propenoyl)-2,6-diazaspiro[3.4]octan-6-yl)-5,6,7,8-tetrahydro-1,7-naphthyridine-3~carbonitrile] were, in that order, 190 nM, more than 5000 nM and 25 nM.
In the case of `C=CC(=O)N1CC2(CCN(c3nc4c(c(-c5ccccc5F)c3C#N)CCN(c3scnc3C)C4C)C2)C1` [Example 21-4, (8R)-4-(2-fluorophenyl)-8-methyl-7-(4-methyl-1,3-thiazol-5-yl)-2-(2-(2-propenoyl)-2,6-diazaspiro[3.4]octan-6-yl)-5,6,7,8-tetrahydro-1,7-naphthyridine-3-carbonitrile (8S)-4-(2-fluorophenyl)-8-methyl-7-(4-methyl-1,3-thiazol-5-yl)-2-(2-(2-propenoyl)-2,6-diazaspiro[3.4]octan-6-yl)-5,6,7,8-tetrahydro-1,7-naphthyridine-3-carbonitrile], the IC50 is 1610 nM in test [1], 10100 nM in test [2] and 85 nM against KRAS G12C.
As to `C=CC(=O)N1CC2(CCN(c3nc4c(c(-c5ccccc5F)c3C#N)CCN(c3scnc3C)[C@@H]4C)C2)C1` [Example 21-5, (8R)-4-(2-fluorophenyl)-8-methyl-7-(4-methyl-1,3-thiazol-5-yl)-2-(2-(2-propenoyl)-2,6-diazaspiro[3.4]octan-6-yl)-5,6,7,8-tetrahydro-1,7-naphthyridine-3-carbonitrile], the figures for the IC50 (in test [1]; in test [2]; on KRAS G12C) were 454 nM, 3980 nM and 57 nM, respectively.
For `C=CC(=O)N1CC2(CCN(c3nc4c(c(-c5ccccc5F)c3C#N)CCN(c3scnc3C)[C@H]4C)C2)C1` [Example 21-6, (8S)-4-(2-fluorophenyl)-8-methyl-7-(4-methyl-1,3-thiazol-5-yl)-2-(2-(2-propenoyl)-2,6-diazaspiro[3.4]octan-6-yl)-5,6,7,8-tetrahydro-1,7-naphthyridine-3-carbonitrile], the values for the IC50 (in test [1]; in test [2]; on KRAS G12C) were 4570 nM, 11200 nM and 930 nM, respectively.
For the compound `C=CC(=O)N1CC2(CCN(c3nc4c(c(-c5ccc(F)cc5F)c3C#N)CCN(c3ccc(OC)cc3)C4)C2)C1` [Example 21-7, 4-(2,4-difluorophenyl)-7-(4-methoxyphenyl)-2-(2-(2-propenoyl)-2,6-diazaspiro[3.4]octan-6-yl)-5,6,7,8-tetrahydro-1,7-naphthyridine-3-carbonitrile], the IC50 amounted to 749 nM in test [1], 6020 nM in test [2] and 94 nM against KRAS G12C.
The matching figures for `C=CC(=O)N1CC2(CCN(c3nc4c(c(-c5cc(O)ccc5F)c3C#N)CC3CCC4N3C(C)C)C2)C1` (stereo not drawn) [Example 21-8]: 5560 nM, more than 25000 nM and 933 nM.
The like results for `C=CC(=O)N1CC2(CCN(c3nc4c(c(-c5cc(O)ccc5Cl)c3C#N)CCN(C(C)C)C4)C2)C1` [Example 21-9, 4-(2-chloro-5-hydroxyphenyl)-7-(2-propanyl)-2-(2-(2-propenoyl)-2,6-diazaspiro[3.4]octan-6-yl)-5,6,7,8-tetrahydro-1,7-naphthyridine-3-carbonitrile] were, in that order, more than 5000 nM, more than 5000 nM and 264 nM.
The like results for `C=CC(=O)N1CC2(CCN(c3nc4c(c(-c5ncccc5F)c3C#N)CCN(c3scnc3C)C4)C2)C1` [Example 21-10, 4-(3-fluoro-2-pyridinyl)-7-(4-methyl-1,3-thiazol-5-yl)-2-(2-(2-propenoyl)-2,6-diazaspiro[3.4]octan-6-yl)-5,6,7,8-tetrahydro-1,7-naphthyridine-3-carbonitrile] were, in that order, 716 nM, more than 5000 nM and 189 nM.
Take `C=CC(=O)N1CC2(CCN(c3nc4c(c(-c5ccccc5Cl)c3C#N)CCN(c3scnc3C)C4)C2)C1` [Example 21-11]: the IC50 in test [1] was 633 nM; in test [2], 4410 nM; against KRAS G12C, 33 nM.
The matching figures for `C=CC(=O)N1CC2(CCN(c3nc4c(c(-c5cc(O)ccc5Cl)c3C#N)CN(Cc3scnc3C)C4)C2)C1` [Example 21-12, 4-(2-chloro-5-hydroxyphenyl)-6-((4-methyl-1,3-thiazol-5-yl)methyl)-2-(2-(2-propenoyl)-2,6-diazaspiro[3.4]octan-6-yl)-6,7-dihydro-5H-pyrrolo[3,4-b]pyridine-3-carbonitrile]: 5400 nM, more than 25000 nM and 393 nM.
